Values of other authors in patent US20100104646A1, “NANOPARTICLE COMPOSITION FOR PREVENTION OF HAIR LOSS AND PROMOTION OF HAIR GROWTH” (priority 2006, published 2010).

System: hair loss
Details: clinical studies

CC(C)(C)NC(=O)[C@H]1CC[C@H]2[C@@H]3CC[C@H]4NC(=O)C=C[C@]4(C)[C@H]3CC[C@]12C [Propecia]
participants taking the drug in whom hair loss was prevented: 68% | participants who enjoyed hair regrowth (participants taking the drug): 66%
